Measured values taken from patent US8338565B2, “Macrocyclic compounds for inhibition of tumor necrosis factor alpha” (Ensemble Therapeutics Corporation, priority 2008, dated 2012).
Numbered stars: 1 amine (or outer) side, 2 acyl side, 3 side chain; on linkers, the order of the positions; unused ones are H or OH. Bridge positions count the residues as written; N and C are the ends. Square brackets hold non-standard residues; d marks the D form. Peptide text beside a SMILES is read from it. Tartaroyl(2R,3R-(OAc)2) = CC(=O)O[C@@H](C(=O)[*:1])[C@@H](OC(C)=O)C(=O)[*:2]; Phe(4-CF3) = N[C@@H](Cc1ccc(C(F)(F)F)cc1)C(=O)O; Phe(4-COOH) = N[C@@H](Cc1ccc(C(=O)O)cc1)C(=O)O; Phe(2,4-Cl2) = N[C@@H](Cc1ccc(Cl)cc1Cl)C(=O)O; Bip = N[C@@H](Cc1ccc(-c2ccccc2)cc1)C(=O)O; dPhe(4-NH2) = Nc1ccc(C[C@@H](N)C(=O)O)cc1; Phe(4-Br) = N[C@@H](Cc1ccc(Br)cc1)C(=O)O; dPhe(2-CN) = N#Cc1ccccc1C[C@@H](N)C(=O)O; Phe(4-NH2) = Nc1ccc(C[C@H](N)C(=O)O)cc1; Ala(2-furyl) = N[C@@H](Cc1ccco1)C(=O)O; dPhe(2-Cl) = N[C@H](Cc1ccccc1Cl)C(=O)O; d(hPhe) = N[C@H](CCc1ccccc1)C(=O)O; d2Thi = N[C@H](Cc1cccs1)C(=O)O; Suc = O=C(CCC(=O)[*:2])[*:1]; GABA = NCCCC(=O)O

Target: T1, TNFα / TNFα receptor (TNFα R1/Fc) (Homo sapiens, UniProt P01375)
T1 construct: purchased R&D Systems
Assay: Inhibition of binding of TNFα to the TNFα receptor (plate ELISA competition)
Conditions: Table 2; read-out: Activity (IC50, inhibition of TNFα binding to TNFα R1/Fc)
Summary of the method: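 Compound dilutions were preincubated 30 min at RT with 8.33 nM TNFα R1/Fc in PBST with 2% DMSO, then added to wells coated with 15 nM TNFα for 30 min. Bound receptor was detected with HRP anti-human Fc and TMB, read as A450.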

T1 sequence (P01375 77-233 limits assumed, species assumed): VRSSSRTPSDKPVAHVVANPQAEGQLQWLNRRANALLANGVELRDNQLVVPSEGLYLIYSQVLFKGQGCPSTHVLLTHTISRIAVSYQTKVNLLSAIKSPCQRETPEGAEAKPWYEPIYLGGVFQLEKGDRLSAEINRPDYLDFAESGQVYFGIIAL

IC50 [µM]	Structure (SMILES)
> 100	CC(=O)O[C@H]1C(=O)Nc2ccc(cc2)C[C@H](C(=O)O)NC(=O)[C@@H](Cc2ccccc2)NC(=O)[C@H](Cc2ccc(-c3ccccc3)cc2)NC(=O)[C@@H](Cc2ccccc2)NC(=O)[C@@H]1OC(C)=O [Compound 222] ([dF][Bip][dF][dPhe(4-NH2)]-OH; linker N-4 via Tartaroyl(2R,3R-(OAc)2))
30 to 100	CC(=O)O[C@H]1C(=O)Nc2ccc(cc2)C[C@@H](C(=O)O)NC(=O)[C@@H](Cc2ccccc2)NC(=O)[C@H](Cc2ccc(-c3ccccc3)cc2)NC(=O)[C@@H](Cc2cccs2)NC(=O)[C@@H]1OC(C)=O [Compound 223] ([d2Thi][Bip][dF][Phe(4-NH2)]-OH; linker N-4 via Tartaroyl(2R,3R-(OAc)2))
> 100	O=C1CCC(=O)N[C@H](CCc2ccccc2)C(=O)N[C@@H](Cc2ccc(C(F)(F)F)cc2)C(=O)N[C@@H](Cc2ccco2)C(=O)N[C@H](C(=O)O)Cc2ccc(cc2)N1 [Compound 224] ([d(hPhe)][Phe(4-CF3)][Ala(2-furyl)][Phe(4-NH2)]-OH; linker N-4 via Suc)
> 100	N#Cc1ccccc1C[C@H]1NC(=O)[C@H](Cc2ccc(C(F)(F)F)cc2)NC(=O)[C@@H](CCc2ccccc2)NC(=O)CCC(=O)Nc2ccc(cc2)C[C@@H](C(=O)O)NC1=O [Compound 225] ([d(hPhe)][Phe(4-CF3)][dPhe(2-CN)][Phe(4-NH2)]-OH; linker N-4 via Suc)
10 to 30	O=C1CCC(=O)N[C@H](CCc2ccccc2)C(=O)N[C@@H](Cc2ccc(C(F)(F)F)cc2)C(=O)N[C@H](Cc2ccccc2Cl)C(=O)N[C@H](C(=O)O)Cc2ccc(cc2)N1 [Compound 226] ([d(hPhe)][Phe(4-CF3)][dPhe(2-Cl)][Phe(4-NH2)]-OH; linker N-4 via Suc)
< 10	O=C1COc2ccc(cc2)C[C@@H](C(=O)N[C@H](Cc2ccccc2)C(=O)O)NC(=O)[C@H](Cc2ccccc2)NC(=O)[C@@H](Cc2ccc(-c3ccccc3)cc2)NC(=O)[C@H](Cc2cccs2)N1 [Compound 227]
< 10	O=C1COc2ccc(cc2)C[C@@H](C(=O)N[C@H](Cc2ccccc2)C(=O)O)NC(=O)[C@H](Cc2ccccc2)NC(=O)[C@H](Cc2ccc(-c3ccccc3)cc2)NC(=O)[C@H](Cc2cccs2)N1 [Compound 228]
< 10	O=C1COc2ccc(cc2)C[C@@H](C(=O)N[C@@H](Cc2ccccc2)C(=O)O)NC(=O)[C@H](Cc2ccccc2)NC(=O)[C@H](Cc2ccc(-c3ccccc3)cc2)NC(=O)[C@H](Cc2cccs2)N1 [Compound 229]
10 to 30	O=C1COc2ccc(cc2)C[C@@H](C(=O)N[C@@H](Cc2ccccc2)C(=O)O)NC(=O)[C@H](Cc2ccccc2)NC(=O)[C@@H](Cc2ccc(-c3ccccc3)cc2)NC(=O)[C@H](Cc2cccs2)N1 [Compound 230]
> 100	CC(=O)O[C@H]1C(=O)Nc2ccc(cc2)C[C@H](C(=O)O)NC(=O)[C@@H](Cc2ccccc2)NC(=O)[C@H](Cc2ccc(Br)cc2)NC(=O)[C@@H](Cc2ccccc2)NC(=O)[C@@H]1OC(C)=O [Compound 231] ([dF][Phe(4-Br)][dF][dPhe(4-NH2)]-OH; linker N-4 via Tartaroyl(2R,3R-(OAc)2))
> 100	CC(=O)O[C@H]1C(=O)Nc2ccc(cc2)C[C@H](C(=O)O)NC(=O)[C@@H](Cc2ccccc2)NC(=O)[C@H](Cc2ccc(Br)cc2)NC(=O)[C@@H](Cc2cccs2)NC(=O)[C@@H]1OC(C)=O [Compound 232] ([d2Thi][Phe(4-Br)][dF][dPhe(4-NH2)]-OH; linker N-4 via Tartaroyl(2R,3R-(OAc)2))
30 to 100	CC(=O)O[C@H]1C(=O)Nc2ccc(cc2)C[C@H](C(=O)O)NC(=O)[C@@H](Cc2ccccc2)NC(=O)[C@H](Cc2ccc(Cl)cc2Cl)NC(=O)[C@@H](Cc2ccccc2)NC(=O)[C@@H]1OC(C)=O [Compound 233] ([dF][Phe(2,4-Cl2)][dF][dPhe(4-NH2)]-OH; linker N-4 via Tartaroyl(2R,3R-(OAc)2))
> 100	CC(=O)O[C@H]1C(=O)Nc2ccc(cc2)C[C@H](C(=O)O)NC(=O)[C@@H](Cc2ccccc2)NC(=O)[C@H](Cc2ccc(Cl)cc2Cl)NC(=O)[C@@H](Cc2cccs2)NC(=O)[C@@H]1OC(C)=O [Compound 234] ([d2Thi][Phe(2,4-Cl2)][dF][dPhe(4-NH2)]-OH; linker N-4 via Tartaroyl(2R,3R-(OAc)2))
10 to 30	CC(=O)O[C@H]1C(=O)Nc2ccc(cc2)C[C@@H](C(=O)O)NC(=O)[C@@H](CCc2ccccc2)NC(=O)[C@H](Cc2ccc(-c3ccccc3)cc2)NC(=O)[C@@H](Cc2ccccc2)NC(=O)[C@@H]1OC(C)=O [Compound 235] ([dF][Bip][d(hPhe)][Phe(4-NH2)]-OH; linker N-4 via Tartaroyl(2R,3R-(OAc)2))
< 10	O=C1N[C@H](CCc2ccccc2)C(=O)N[C@@H](C(=O)O)Cc2ccc(cc2)NC(=O)[C@H](O)[C@@H](O)C(=O)N[C@H](Cc2cccs2)C(=O)N[C@H]1Cc1ccc(Br)cc1 [Compound 238]
10 to 30	O=C1N[C@H](CCc2ccccc2)C(=O)N[C@@H](C(=O)O)Cc2ccc(cc2)NC(=O)[C@H](O)[C@@H](O)C(=O)N[C@H](Cc2cccs2)C(=O)N[C@H]1Cc1ccc(Cl)cc1Cl [Compound 240]
30 to 100	O=C1N[C@H](Cc2ccccc2)C(=O)N[C@@H](C(=O)O)Cc2ccc(cc2)NC(=O)[C@H](O)[C@@H](O)C(=O)N[C@H](Cc2ccccc2)C(=O)N[C@H]1Cc1ccc(-c2ccccc2)cc1 [Compound 241]
30 to 100	O=C1N[C@H](Cc2ccccc2)C(=O)N[C@@H](C(=O)O)Cc2ccc(cc2)NC(=O)[C@H](O)[C@@H](O)C(=O)N[C@H](Cc2cccs2)C(=O)N[C@H]1Cc1ccc(Br)cc1 [Compound 242]
30 to 100	O=C1N[C@H](Cc2ccccc2)C(=O)N[C@@H](C(=O)O)Cc2ccc(cc2)NC(=O)[C@H](O)[C@@H](O)C(=O)N[C@H](Cc2ccccc2)C(=O)N[C@H]1Cc1ccc(Cl)cc1Cl [Compound 243]

IC50 [µM]	Structure (SMILES)
30 to 100	O=C1N[C@H](Cc2ccccc2)C(=O)N[C@@H](C(=O)O)Cc2ccc(cc2)NC(=O)[C@H](O)[C@@H](O)C(=O)N[C@H](Cc2cccs2)C(=O)N[C@H]1Cc1ccc(Cl)cc1Cl [Compound 244]
10 to 30	O=C(O)[C@@H]1Cc2ccc(cc2)NC(=O)[C@H](O)[C@@H](O)C(=O)N[C@H](Cc2ccccc2)C(=O)N[C@@H](Cc2ccc(-c3ccccc3)cc2)C(=O)N[C@H](CCc2ccccc2)C(=O)N1 [Compound 245]
30 to 100	O=C(O)[C@@H]1Cc2ccc(cc2)NC(=O)[C@H](O)[C@@H](O)C(=O)N[C@H](CCc2ccccc2)C(=O)N[C@@H](Cc2ccc(-c3ccccc3)cc2)C(=O)N[C@H](Cc2ccccc2)C(=O)N1 [Compound 246]
> 100	O=C1CNC(=O)c2ccc(cc2)C[C@@H](C(=O)O)NC(=O)[C@@H](Cc2ccccc2)NC(=O)[C@H](Cc2ccc(-c3ccccc3)cc2)NC(=O)[C@@H](CCc2ccccc2)N1 [Compound 247] (G[d(hPhe)][Bip][dF][Phe(4-COOH)]-OH; lactam N-5)
> 100	O=C1CCCNC(=O)c2ccc(cc2)C[C@@H](C(=O)O)NC(=O)[C@@H](Cc2ccccc2)NC(=O)[C@H](Cc2ccc(-c3ccccc3)cc2)NC(=O)[C@@H](CCc2ccccc2)N1 [Compound 249] ([GABA][d(hPhe)][Bip][dF][Phe(4-COOH)]-OH; lactam N-5)
> 100	O=C1COc2ccc(cc2)C[C@@H](C(=O)O)NC(=O)[C@@H]2CCCN2C(=O)[C@@H](Cc2ccc(-c3ccccc3)cc2)NC(=O)[C@H](Cc2cccs2)N1 [Compound 250]
> 100	O=C1CN(Cc2ccccc2)C(=O)[C@@H](Cc2ccc(-c3ccccc3)cc2)NC(=O)[C@H](Cc2cccs2)NC(=O)COc2ccc(cc2)C[C@@H](C(=O)O)N1 [Compound 253]
10 to 30	O=C1COc2ccc(cc2)C[C@@H](C(=O)O)NC(=O)[C@H](CCc2ccccc2)NC(=O)[C@H](Cc2ccc(-c3ccccc3)cc2)NC(=O)[C@H](Cc2cccs2)N1 [Compound 254]
> 100	O=C1COc2ccc(cc2)C[C@@H](C(=O)O)NC(=O)[C@@H]2CCCN2C(=O)[C@H](Cc2ccc(-c3ccccc3)cc2)NC(=O)[C@H](Cc2cccs2)N1 [Compound 255]
> 100	CC(=O)NCCCC[C@@H]1NC(=O)[C@H](Cc2ccc(-c3ccccc3)cc2)NC(=O)[C@H](Cc2cccs2)NC(=O)COc2ccc(cc2)C[C@@H](C(=O)O)NC1=O [Compound 256]
> 100	O=C1CN(Cc2ccccc2)C(=O)[C@H](Cc2ccc(-c3ccccc3)cc2)NC(=O)[C@H](Cc2cccs2)NC(=O)COc2ccc(cc2)C[C@@H](C(=O)O)N1 [Compound 257]
> 100	O=C(O)CC[C@@H]1NC(=O)[C@H](Cc2ccc(-c3ccccc3)cc2)NC(=O)[C@H](Cc2cccs2)NC(=O)COc2ccc(cc2)C[C@@H](C(=O)O)NC1=O [Compound 258]
30 to 100	CC(C)(C)OC(=O)CC[C@@H]1NC(=O)[C@H](Cc2ccc(-c3ccccc3)cc2)NC(=O)[C@H](Cc2cccs2)NC(=O)COc2ccc(cc2)C[C@@H](C(=O)O)NC1=O [Compound 259]
30 to 100	N#Cc1ccc(C[C@H]2NC(=O)[C@H](O)[C@@H](O)C(=O)Nc3ccc(cc3)C[C@@H](C(=O)O)NC(=O)[C@@H](Cc3ccccc3)NC(=O)[C@H](Cc3ccc(-c4ccccc4)cc3)NC2=O)cc1 [Compound 260]
30 to 100	O=C(O)[C@@H]1Cc2ccc(cc2)NC(=O)[C@H](O)[C@@H](O)C(=O)N[C@H](Cc2ccc(F)cc2)C(=O)N[C@@H](Cc2ccc(-c3ccccc3)cc2)C(=O)N[C@H](Cc2ccccc2)C(=O)N1 [Compound 261]
10 to 30	O=C(O)[C@@H]1Cc2ccc(cc2)NC(=O)[C@H](O)[C@@H](O)C(=O)N[C@H](Cc2ccc(F)c(F)c2)C(=O)N[C@@H](Cc2ccc(-c3ccccc3)cc2)C(=O)N[C@H](Cc2ccccc2)C(=O)N1 [Compound 262]
> 100	O=C(O)[C@@H]1Cc2ccc(cc2)NC(=O)[C@H](O)[C@@H](O)C(=O)N[C@H](Cc2ccc(C(F)(F)F)cc2)C(=O)N[C@@H](Cc2ccc(-c3ccccc3)cc2)C(=O)N[C@H](Cc2ccccc2)C(=O)N1 [Compound 263]
> 100	Cc1ccc(C[C@H]2NC(=O)[C@H](O)[C@@H](O)C(=O)Nc3ccc(cc3)C[C@@H](C(=O)O)NC(=O)[C@@H](Cc3ccccc3)NC(=O)[C@H](Cc3ccc(-c4ccccc4)cc3)NC2=O)cc1 [Compound 264]
